These are literature values, as cited in patent publication US20240390359A1, “METHODS FOR THE TREATMENT AND PREVENTION OF NON-VIRAL TICK-BORNE DISEASES AND SYMPTOMS THEREOF” (priority 2023, published 2024).

In data set [1] the test system is Borrelia burgdoferi B31 5A18NP1 strain. Conditions: 4 h; cited from earlier work.
Data set [2] deals with various serovars of Leptospira. The settings on record: exposure for as little as 30 min; cited from earlier work.
The test system of a further data set is Treponema palludum. The settings on record: 50 or 100 microM for two hours in a 3% oxygen atmosphere; cited from earlier work.
A further data set concerns Babesia parasites. The settings on record: 100 microM for 2h, in vitro; cited from earlier work.
Data set [3] relates to Trypanosome brucei blood stage forms. Conditions: exposure for 90 minutes; cited from earlier work.
Another data set relates to Babesia microti. Conditions: Mongolian jirds; primaquine given daily; cited from earlier work.
The test system of data set [4] is P. falciparum. Conditions: 250 mg/day; cited from earlier work.
Data set [5] concerns P. falciparum. The settings on record: 250 mg/day; cited from earlier work. This is another data set of the same source.
The test system of data set [6] is B. rodhaini. The settings on record: single dose of 20 mg/kg; immunocompromised SCID mice; cited from earlier work.
For data set [7], the system named is extracellular blood stage forms of Trypanosoma brucei. The settings on record: cited from earlier work.
In another data set the test system is Babesia. The settings on record: mice; cited from earlier work.
For data set [8] the following is noted: 600 mg over three days then 200 mg weekly for up to one year; cited from earlier work.
For data set [9], the system named is free-living gram-negative and gram-positive bacteria. The settings on record: cited from earlier work.
The conditions of data set [10]: in vivo; cited from earlier work.
A further data set relates to Plasmodium falciparum. Conditions: 600 mg loading dose followed by 200 mg; challenge three days after last dose; all control subjects developed parasitemia; cited from earlier work.
Data set [11] deals with B. rodhaini. Conditions: cited from earlier work.
Another data set relates to B. microti. The settings on record: one patient, prior rituximab; tafenoquine as monotherapy for six weeks at approved malaria prevention dose; cited from earlier work.
Data set [12] concerns blood stages of P. falciparum. Conditions: in vivo; cited from earlier work.
The subject of data set [13] is intracellular amastigote forms of Leishmania major. The settings on record: cited from earlier work.
For data set [14] the following is noted: cited from earlier work.
For data set [15] the following is noted: cited from earlier work. This is another data set of the same source.
The test system of another data set is Plasmodium vivax. The settings on record: monotherapy 400 mg/day for three days, cited from earlier work.
The subject of another data set is B. gibsoni. Conditions: splenectomized dogs, cited from earlier work.
For the next data set, the system named is Pneumocystis. Conditions: mice; cited from earlier work.
For data set [16], the system named is P. falciparum gametocytes. Conditions: single dose combined with dihydroartemisinin/piperaquine; cited from earlier work.

Structures are written as SMILES.

Consider `OO` [hydrogen peroxide], for which the “lowest concentration that inhibited growth” value in data set [1] is 62.5 µM. In data set [2], the “exogenous hydrogen peroxide concentrations that killed” value was less than 180 µM. Further, the growth entry in the data set with Treponema palludum was “significantly inhibited”. Further, the “killing of Babesia parasites” value with Babesia parasites is listed as “kills Babesia parasites in vitro”. In data set [3], the “hydrogen peroxide concentration that killed blood stage forms” value is listed as “approximately 140 microM”.
As for `COc1cc(NC(C)CCCN)c2nccc(C)c2c1` (centres unmarked) [4-methyl substituted primaquine], the “efficacy against Babesia microti” value in the data set on Babesia microti was “more efficacious than primaquine”.
Turning to `CC[C@H]1OC(=O)[C@H](C)[C@@H](O[C@H]2C[C@@](C)(OC)[C@@H](O)[C@H](C)O2)[C@H](C)[C@@H](O[C@@H]2O[C@H](C)C[C@H](N(C)C)[C@H]2O)[C@](C)(O)C[C@@H](C)CN(C)[C@H](C)[C@@H](O)[C@]1(C)O` [Azithromycin], the “Protective Efficacy (%) Relative to Placebo, PF/Non-immune or Malaria-naïve” value in the data set on P. falciparum [4] was 72% (Taylor). Besides, in the data set on P. falciparum [5], the “Protective Efficacy (%) Relative to Placebo, Pf/Semi-Immune” value is listed as 83% (Anderson).
Consider `COc1cc(C)c2c(Oc3cccc(C(F)(F)F)c3)c(OC)cc(NC(C)CCCN)c2n1` (centres unmarked) [tafenoquine, N (4)-[2,6-Dimethoxy-4-methyl-5-[3-(trifluoromethyl)phenoxy]quinolin-8-yl] pentane-1,4-diamine], for which the death entry in the data set with B. rodhaini [6] is reported as “delayed not prevent”. In addition, the potency of killing in data set [7] and in [13] was less than 4 µM each time. Further, the “single dose that cleared Babesia parasitemia” value in the data set with Babesia is 20 mg/kg. For the same molecule, in data set [8], the “overall rate of adverse events relative to placebo” value is on record as “without increasing the overall rate of adverse events”. In data set [8], the “specific adverse events with increased risk” value is “gastrointestinal effects [mild to moderate] and cornea verticillata”. Also, the “activity against gram-negative versus gram-positive bacteria” value in data set [9] is “much less active against free-living gram-negative bacteria than free-living gram-positive bacteria”. The half-life in [10] is recorded as 14 days. The “development of blood stage parasitemia after challenge” value in the data set on Plasmodium falciparum was “none of the tafenoquine subjects did”. Further, the “formation of vacuoles in B. rodhaini blood stages” value in the data set with B. rodhaini [11] (single dose of 20 mg/kg in mice) is given as “induces the formation of large vacuoles”. The parasitemia result in the data set on B. rodhaini [11] (single dose of 20 mg/kg, Balb/c mice) is “cleared parasitemia”; in the data set with B. gibsoni (100 mg tablet (9-11.5 mg/kg) on Days 12, 19 and 48), “sufficient to clear and cure”. In addition, in the data set with B. rodhaini [11] (single dose of 20 mg/kg, Balb/c mice, infection uniformly lethal in untreated animals), the survival is given as 100%. The “antioxidant enzymes in B. rodhaini” value with B. rodhaini [11] (single dose treatment in mice) is reported as “upregulated”. For the same molecule, the “clinical outcome of babesiosis treatment” value in the data set with B. microti is listed as “the patient was cured”. In [12], the “activity against the blood stages of P. falciparum” value was “quite effective”. Also, in data set [14] (G6PD deficient subjects), the “doses that may not be well tolerated” value is on record as no less than 300 mg. In addition, in data set [14] (G6PD normal adult subjects), the “doses that may be well tolerated” value is reported as “up to 400 mg”. For the same molecule, in [14] (adult subjects regardless of G6PD status), the “doses often not well tolerated” value was “above 400 mg”. In addition, the “effect on QTC prolongation associated with chloroquine” value in data set [15] (coadministered with chloroquine) is “did not increase the QTC prolongation”. Also, the “effect on QTC interval” value in data set [15] (doses of up to 1200 mg over three days) is reported as “not found to increase the upper limit of 90% confidence interval of the QTC interval”. Further, the “day by which all patients cleared blood stage parasites” value in the data set with Plasmodium vivax was no more than 8 days. In addition, the “relapses during the follow up period” value in the data set on Plasmodium vivax (patients with data available) is recorded as “no relapses”. The “symptoms of infections such as anorexia, elevated respiration and pulse” value in the data set with B. gibsoni is reported as “alleviated”.
Regarding `COc1cc(NC(C)CCCN)c2ncccc2c1` (centres unmarked) [primaquine], in the data set with Babesia, the “single dose that cleared Babesia parasitemia” value was 100 mg/kg. Also, the “cure of Pneumocystis infections” value in the data set on Pneumocystis is recorded as “must be combined with clindamycin”. Besides, the “time until gametocyte infectivity statistically lower than reference values” in data set [16] is reported as “two days post-dosing”.
